Patent US8273726B2, “Compositions for treating and/or preventing diseases characterized by the presence of metal ions” (Brandeis University, priority 2002, dated 2012)
Entries after “also recorded” stand apart in the source; their conditions may differ. Where a name gives a salt, the structure may show the parent alone. Read-outs that look alike come from different tables or passages of the source.

Legend:
Caco-2 cells [1] = tested on: Caco-2 cells
A-beta1-42 peptide [2] = format: biochemical, human
NF-M17 = assay: CD titration of NF-M17 peptide/aluminum with silicon compounds (Example 1); format: biochemical, human
A-beta1-42 peptide [3] = target: T1, A-beta1-42 peptide (Homo sapiens, UniProt P05067); format: biochemical
T1 sequence (P05067 672-713): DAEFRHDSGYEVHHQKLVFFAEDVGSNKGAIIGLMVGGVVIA

A-beta antigen = assay: Slot blot of A-beta antigen extracted from Alzheimer's brain tissue sections (Example 8); parameters: species or system human
in vitro = conditions: human, Caco-2
Caco-2 cells [4] = conditions: for Permeation Coefficient (cm/sec) Mean ± SD, where applicable: human
A-beta1-42 peptide [5] = target: T1, A-beta1-42 peptide; format: biochemical; remark: listed apart in the source
[6] = tested on: peptide 1 (A-beta1-42 peptide); assay: CD titration of iron-complexed peptide 1 with silanes (Example 9); format: biochemical, human

## C1CC[Si]2(CCCCO2)OC1 [SDSU, 1,7-dioxa-6-sila-spiro[5.5]undecane]
Caco-2 cells [1]
  transport across Caco-2 cells: significant amount of transport
A-beta1-42 peptide [2]
  restoration of the original CD spectrum of A-beta1-42 peptide after exposure to aluminum: at least partially restored

## O[Si](O)(c1ccccc1)c1ccccc1 [DPSD, diphenylsilandiol]
NF-M17; CD spectrum of NF-M17 with 8 equivalents of aluminum, in TFE
  Restore original spectra?: (DMSO interfered with spectra)
NF-M17; NF-M17 with 8 equivalents of aluminum, in TFE
  restoration of the CD spectrum of NF-M17/aluminum to its original shape: did not restore

## [Fe+2] [iron (II)]
A-beta1-42 peptide [3]
  effect of the metal on the A-beta1-42 CD spectrum: minor or no effects

## CCC(C#N)C[Si](C)(Cl)Cl (centres unmarked) [CBMS, 2-cyanobutylmethyldichlorosilane]
A-beta antigen
  Total Extracted: 5.2 fmol
In vitro
  Papp A→B: 6.5 ×10⁻⁶ cm/s

## CCCCCC[Si](C)(Cl)Cl [HMDS, hexylmethyldichlorosilane]
A-beta1-42 peptide [2]
  restoration of the original CD spectrum of A-beta1-42 peptide after exposure to aluminum: at least partially restored
NF-M17
  Restore original spectra?: Yes
  equivalents at which the CD spectrum of NF-M17/aluminum was restored to its original shape: around 32 equivalents

## CC(C)[Si](Cl)(Cl)C(C)C [DCDIPS, dichlorodiisopropylsilane]
A-beta1-42 peptide [2]
  restoration of the original CD spectrum of A-beta1-42 peptide after exposure to aluminum: at least partially restored
NF-M17
  Restore original spectra?: Yes
  equivalents at which the CD spectrum of NF-M17/aluminum was restored to its original shape: around 32 equivalents

## trihydroxysilylmethyl phosphonate [TSMP]
Caco-2 cells [4]; Caco-2
  permeation of Caco-2 cells relative to mannitol: slower permeation than mannitol

## triethoxysilylpropionitrile [TESP]
A-beta1-42 peptide [2]
  restoration of the original CD spectrum of A-beta1-42 peptide after exposure to aluminum: at least partially restored

## [Cu] [copper]
A-beta1-42 peptide [3]
  effect of the metal on the A-beta1-42 CD spectrum: strong effects

## CCCCCCCC[Si](Cl)(Cl)Cl [OTCS, n-octyltrichlorosilane]
NF-M17
  Restore original spectra?: (gelation of OTCS)
  restoration of the CD spectrum of NF-M17/aluminum to its original shape: did not restore

## [Fe+3] [iron (III)]
A-beta1-42 peptide [3]
  effect of the metal on the A-beta1-42 CD spectrum: strong effects

## C[Si](Cl)(Cl)c1ccccc1 [MPDS, methylphenyldichlorosilane]
NF-M17
  Restore original spectra?: Yes
  equivalents at which the CD spectrum of NF-M17/aluminum was restored to its original shape: around 32 equivalents

## triethoxysilylbutyronitrile [TESB]
Caco-2 cells [1]
  relative transport across Caco-2 cells (FIG. 29B vs FIG. 29A): more transport
  transport across Caco-2 cells: significant amount of transport
A-beta1-42 peptide [2]
  restoration of the original CD spectrum of A-beta1-42 peptide after exposure to aluminum: at least partially restored; also recorded: reverses aluminum-induced denaturation
Caco-2 cells [4]; Caco-2
  permeation of Caco-2 cells relative to mannitol: at least four times greater
  Permeation Coefficient (cm/sec) Mean ± SD, where applicable: 3.0 × 10^−5 (n = 2) cm/sec

## CC[Si](Cl)(Cl)CC [DCDES, dichlorodiethylsilane]
A-beta1-42 peptide [2]
  restoration of the original CD spectrum of A-beta1-42 peptide after exposure to aluminum: at least partially restored
NF-M17
  Restore original spectra?: Yes
  equivalents at which the CD spectrum of NF-M17/aluminum was restored to its original shape: around 32 equivalents

## N#CCCC[Si](Cl)(Cl)Cl [CPTCS, 3-cyanopropyltrichlorosilane]
A-beta1-42 peptide [2]
  reversal of the effect of aluminum on the CD spectrum of A-beta1-42: Moderate reversal; also recorded: almost full reversal
NF-M17
  Restore original spectra?: Yes
  equivalents at which the CD spectrum of NF-M17/aluminum was restored to its original shape: around 32 equivalents

## NCCC[Si](O)(O)O [APST, 3-aminopropylsilantriol]
NF-M17
  Restore original spectra?: Yes
  chelation of aluminum compared to sodium orthosilicate: improved chelation
  restoration of the CD spectrum of NF-M17/aluminum to its original shape: able to restore

## CC(=O)O[Si](OC(C)=O)(OC(C)=O)OC(C)=O [TAS, tetraacetooxysilane]
A-beta1-42 peptide [2]
  restoration of the original CD spectrum of A-beta1-42 peptide after exposure to aluminum: at least partially restored

## [Zn] [Zinc]
A-beta1-42 peptide [3]
  effect of the metal on the A-beta1-42 CD spectrum: minor or no effects

## C[Si](Cl)(Cl)CCC#N [CEMS, 2-cyanoethylmethyldichlorosilane]
A-beta1-42 peptide [5]
  protection of the helical structure of A-beta1-42 against amyloid formation by aluminum (III): protection of the helical structure
In vitro
  Papp A→B: 4.6 ×10⁻⁶ cm/s

## CN(C)[Si](N(C)C)(N(C)C)N(C)C [tetrakis, tetrakis(dimethylamino)silane]
A-beta1-42 peptide [2]
  restoration of the original CD spectrum of A-beta1-42 peptide after exposure to aluminum: at least partially restored

## CC(C)(C)[Si](C)(C)O [TBDMS, tert-butyldimethylsilanol]
NF-M17
  Restore original spectra?: No
  restoration of the CD spectrum of NF-M17/aluminum to its original shape: did not restore

## Aluminum
A-beta1-42 peptide [3]
  effect of the metal on the A-beta1-42 CD spectrum: decreases with higher concentrations; also recorded: strong effects

## O.O.O.O.O.O.O.O.O.O=[Si]([O-])[O-].[Na+].[Na+] [sodium metasilicate, sodium metasilicate nonahydrate, reference compound]
NF-M17; NF-M17 with 8 equivalents of aluminum
  equivalents at which the CD curve began to return / showed some return to its original shape: about 32 equivalents

## CC(C#N)C[Si](C)(Cl)Cl (centres unmarked) [CPMS, 2-cyanopropylmethyldichlorosilane]
A-beta antigen
  Total Extracted: 6.0 fmol
  extraction of A-beta antigen from Alzheimer's tissue: no detectable antigen
In vitro
  Papp A→B: 6.1 ×10⁻⁶ cm/s

## Cl [HCl, hydrochloric acid, reference compound]
A-beta antigen
  extraction of A-beta antigen from Alzheimer's tissue: no detectable antigen
[6]
  reversing the helix-coil transition by acid: effective for reversing the helix-coil transition

## C[Si](O)(O)CCCC#N [3f, (dihydroxy)methyl(3-cyanopropyl)silane]
[6]
  return of the helical CD spectrum on titration of iron-complexed peptide 1: dosage effect is evident, but non-linear
  titration point showing the greatest degree of recovery: 0.25 eq.

## CC[Si](O)(CC)Cc1ccccc1 [BDS, benzyldiethylsilanol]
NF-M17
  Restore original spectra?: No
  restoration of the CD spectrum of NF-M17/aluminum to its original shape: did not restore

## (dichloro)methylsilylbutyronitrile [DCMSBN]
Caco-2 cells [1]
  relative transport across Caco-2 cells (FIG. 29B vs FIG. 29A): more transport
  transport across Caco-2 cells: significant amount of transport
A-beta1-42 peptide [2]
  restoration of the original CD spectrum of A-beta1-42 peptide after exposure to aluminum: at least partially restored
NF-M17
  Restore original spectra?: Yes
  equivalents at which the CD spectrum of NF-M17/aluminum was restored to its original shape: around 32 equivalents

## dichlorosilacyclobutane [DCSCB]
Caco-2 cells [1]
  transport across Caco-2 cells: significant amount of transport
A-beta1-42 peptide [2]
  restoration of the original CD spectrum of A-beta1-42 peptide after exposure to aluminum: at least partially restored

## CC[Si](O)(CC)CC [TES, triethylsilanol]
A-beta1-42 peptide [2]
  restoration of the original CD spectrum of A-beta1-42 peptide after exposure to aluminum: at least partially restored
NF-M17
  Restore original spectra?: No
  restoration of the CD spectrum of NF-M17/aluminum to its original shape: did not restore

## C[Si](Cl)(Cl)CC[Si](C)(Cl)Cl [compound 1042, 1,2-(methyldichlorosilyl)ethane]
A-beta antigen; Braak V tissue, 1 h at room temperature, corrected for volume dilution
  Total Extracted: 14.0 fmol
A-beta antigen; based on the intensity from urea-solubilized tissues
  share of total antigen released to the extract: approximately 12%
Caco-2 cells [4]; Caco-2
  crossing of the epithelial barrier in the Caco-2 model: crossed the epithelial barrier efficiently
  permeation of Caco-2 cells relative to mannitol: at least four times greater
Caco-2 cells [4]; Caco-2, 60 min, 20 mM
  Permeation Coefficient (cm/sec) Mean ± SD, where applicable: 2.5 × 10^−5 (n = 2) cm/sec
